{"source": "patent US12558353B2", "about": "(CELLTAXIS, LLC, priority 2018, dated 2026)", "origin": "cited, not measured here", "key": {"[1]": {"target": "T1, BLT1 receptor (Homo sapiens, UniProt Q15722)", "T1 construct": "host or cells: human CF patients (endogenous receptor)", "T1 sequence (Q15722 whole entry)": "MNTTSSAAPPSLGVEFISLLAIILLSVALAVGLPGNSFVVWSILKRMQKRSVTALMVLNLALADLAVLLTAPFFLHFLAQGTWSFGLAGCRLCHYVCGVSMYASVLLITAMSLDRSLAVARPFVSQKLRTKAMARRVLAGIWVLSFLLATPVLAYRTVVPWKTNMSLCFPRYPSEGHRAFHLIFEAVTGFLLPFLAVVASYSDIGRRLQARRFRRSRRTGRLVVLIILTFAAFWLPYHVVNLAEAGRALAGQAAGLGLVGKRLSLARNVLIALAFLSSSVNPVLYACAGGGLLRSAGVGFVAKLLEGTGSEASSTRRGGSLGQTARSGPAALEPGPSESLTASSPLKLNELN", "conditions": "patients with stable CF lung disease, cited from earlier work"}, "[2]": {"test_system": "P. aeruginosa-infected mice", "conditions": "doses of 0.3 to 100 mg/kg; cited from earlier work"}, "[3]": {"test_system": "patients with CF", "conditions": "high doses, cited from earlier work"}}, "note": "Where two headings read alike, the source gives them in different places."}
{"smiles": "CCOC(=O)NC(=N)c1ccc(OCc2cccc(COc3ccc(C(C)(C)c4ccc(O)cc4)cc3)c2)cc1", "values": [{"measurement": "serious adverse events leading to early termination of the trial", "setting": "[1]", "result": "increase in respiratory serious adverse events"}, {"measurement": "serious adverse events leading to early termination of the trial", "setting": "[1]; listed as amelubant", "result": "increase in serious pulmonary AEs"}, {"measurement": "Mac-1 (CR3) expression", "setting": "[2]", "result": "significantly down-regulated"}, {"measurement": "number of neutrophils in the lungs and the airways", "setting": "[2]", "result": "reduced the number of neutrophils"}]}
{"smiles": "CC(C)Cc1ccc(C(C)C(=O)O)cc1", "note": "(stereo not drawn) [ibuprofen]", "values": [{"measurement": "survival", "setting": "[3]; children with CF", "result": "improves survival"}, {"measurement": "lung function decline", "setting": "[3]", "result": "slows lung function decline"}]}
